In brackets after ≈: the same amount, converted by molar mass. Read-outs that look alike come from different tables or passages of the source.
Key:
E. faecalis FA2–2 = test: MIC against wild-type E. faecalis FA2-2 (FabI and FabK); assay type: cell-based, Enterococcus faecalis; details: E. faecalis FA2-2, possesses both FabI and FabK; for MIC: Enterococcus faecalis, read-out: MIC Ef wild-type
Experimental: (§1) Compounds were twofold serially diluted (100–0.2 μg/mL) across a 96-well plate in 100 μL of media used for the specific organism (Table S4). For anaerobes, plates were incubated anaerobically at 37 °C for 1 h and then inoculated with approximately 10^5 to 10^6 CFU/well. Plates were incubated at 37 °C for up to 48 h, and MICs were read by visual inspection.

E. faecalis FA2–2ΔfabK = test: MIC against E. faecalis FA2-2 fabI+ (ΔfabK, possesses only FabI); assay type: cell-based, Enterococcus faecalis; details: E. faecalis FA2-2 ΔfabK, possesses only FabI
Experimental: as §1

E. faecalis FA2–2ΔfabI = test: MIC against E. faecalis FA2-2 fabK+ (ΔfabI, possesses only FabK); assay type: cell-based, Enterococcus faecalis; details: for MIC Ef fabK+: E. faecalis FA2-2 ΔfabI, possesses only FabK; for MIC: Enterococcus faecalis, read-out: MIC Ef fabK+, E. faecalis FA2-2 ΔfabI, possesses only FabK
Experimental: as §1

F. nucleatum 23726 [1] = test: MIC against F. nucleatum 23726; assay type: cell-based, Fusobacterium nucleatum; details: three biological replicates; for MIC Fn 23726: F. nucleatum 23726 wild-type; for MIC: Fusobacterium nucleatum, 23726, F. nucleatum 23726 wild-type, read-out: MIC Fn 23726
Experimental: as §1

CdFabK = test system: CdFabK; set-up: method as in PMID 37224699; details: previously reported, cited from earlier work
FnFabK = FnFabK (Fusobacterium nucleatum subsp. nucleatum, UniProt Q8RGV3); test: biochemical; details: for IC50: IC50 against FnFabK
Experimental: Incubation lasted for a total of 10 min before the addition of crotonyl-CoA substrate, and the reaction was initiated by the addition of NADH for a final assay volume of 100 μL. The oxidation of NADH to NAD+ was measured by tracking fluorescence (340 nm/460 nm) with a Biotek Synergy H1 microplate reader in 15 s intervals for a total of 10 min to monitor the rate of reaction. The reaction was conducted in Greiner Bio-One 384-well μClear Bottom Polystyrene Microplates. […] Measurements were conducted in triplicate, and IC50’s were calculated via GraphPad Prism 9.1.2 using four-parameter logistic (Hill) curve analysis using equation Y = bottom + (top – bottom)/[1 + 10 (Log IC50 – X) × Hill Slope], where X is the logarithm of the dose and Y is the response. The assay concentrations of the cofactor, NADH, and substrate, crotonyl-CoA, were also determined via GraphPad Prism 9.1.2 using the substrate inhibition model to determine Km(app).

[2] = Cytotoxicity against Vero cells (resazurin viability); assay type: cell-based; details: monkey, Vero epithelial cells, maximum tested concentration 100 μg/mL
Experimental: This was done as described[36] using colorectal carcinoma HCT116 and Vero epithelial cells cultured at 37 °C in 5% CO2 in Dulbecco’s modified Eagle’s medium (DMEM) with 4.5 g/L glucose and L-glutamine. The medium was supplemented with 10% v/v FetalGro (Rocky Mountain Biologicals). Approximately 25,000/well were aliquoted into black 96-well plates (Greiner Bio-One) and incubated overnight, before being resuspended in DMEM supplemented with 20% Gibco KnockOut Serum Replacement (Thermo Fisher Scientific). Compounds (100–1.6 μg/mL) were then added to the cells and incubated for 24 h at 37 °C and 5% CO2. Cell viability was analyzed using resazurin as described.[36]

[3] = test system: C. difficile infection (CDI); details: cited from earlier work
[4] = test system: F. nucleatum 23726 overexpression strains; test: MIC against F. nucleatum 23726 transformed with empty vector, fabK or fabX under ATc-inducible promoter; assay type: cell-based, Fusobacterium nucleatum; details: Fusobacterium nucleatum
Experimental: The transformation of F. nucleatum 23726 was performed via electroporation as previously described,[41] except that Columbia broth was used. (i) Antisense vector: F. nucleatum gene silencing vector, pHFK2, was developed by inserting the ATc inducible paired-termini antisense sequences from the clostridial vector pMSPT into pCWU6, a F. nucleatum vector.[56] pCWU6 was amplified by PCR (CloneAmp polymerase) and recombined with the BamHI and KpnI fragments of pMSPT containing the Tet promoter and paired-termini sequences.[26] Antisense nucleotides targeting either 50 bp upstream and downstream of the fabK start codon (FabKAS1) or 25 bp upstream and 75 bp downstream (FabKAS2) were cloned into SphI and XhoI restriction sites of pHFK2. (ii) Complementation vectors: these were generated by PCR amplifying the fabK promoter and gene and introducing KpnI and HindIII restriction sites at 5′ and 3′ ends, respectively. Purified PCR amplicons were inserted into the KpnI and HindIII sites of pCWU6. (iii) Overexpression vectors: the corresponding gene, fabK or fabX, was amplified via PCR, introducing HindIII or SacI restriction sites to the 5′ end, respectively. BamHI restriction sites were introduced to the 3′ end of both. Purified PCR amplicons were inserted into the respective restriction sites of pHFK2. (iv) Allelic exchange vector: vector, pCWU8-FabK, was generated using a previously described protocol,[41],[56] whereby 1-kb regions upstream and downstream of fabK were cloned into the suicide vector pCWU8 using a Gibson Assembly Cloning Kit (New England Biolabs). The recombinant vector was transformed into strain F. nucleatum 23726ΔgalK, and successful integrants were collected that were resistant to thiamphenicol (5 μg/mL). Since the suicide vector expresses GalK, which is toxic in the presence of 2-deoxy-D-galactose (2-DG), the compound 2-DG (0.25% w/v) was added to counter-select for mutants that underwent a second homologous recombination. Ten resulting colonies were then tested for deletion of fabK via PCR, using primers in Table S7. The experiment was independently performed twice for a total of 20 colonies screened for fabK deletion. All experiments were done anaerobically at 37 °C in tryptic soy broth supplemented with 1% w/v peptone and 0.25% w/v autoclaved L-cysteine hydrochloride (TSPC) or TSPC agar with thiamphenicol or 2-DG.
as §1

F. nucleatum 23726 [5] = test: Growth in FAS-II inhibitor with or without exogenous fatty acids; assay type: cell-based, Fusobacterium nucleatum; details: fatty acid mixture of Table S2
Experimental: To plates containing twofold serial dilutions of compounds, exponential phase cultures were added to a final OD600nm of 0.1. Plates containing F. nucleatum in Columbia broth were incubated at 37 °C inside of a Tecan Infinite 200 Pro, which was inside an anaerobic chamber; growth kinetics for Streptococcus spp. in brain heart infusion broth were done aerobically in the same Tecan instrument.

FnFabK, sequence (Q8RGV3 entry or part of it): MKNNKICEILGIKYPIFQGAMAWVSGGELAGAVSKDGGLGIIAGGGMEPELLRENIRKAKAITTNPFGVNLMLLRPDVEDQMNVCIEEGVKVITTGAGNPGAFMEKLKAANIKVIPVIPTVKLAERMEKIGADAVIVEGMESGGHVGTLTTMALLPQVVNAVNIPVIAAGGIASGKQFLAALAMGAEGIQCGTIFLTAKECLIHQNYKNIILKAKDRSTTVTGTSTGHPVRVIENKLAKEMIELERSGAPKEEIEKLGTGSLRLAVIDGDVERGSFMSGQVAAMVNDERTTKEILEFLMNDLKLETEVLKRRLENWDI

Row | Compound | MIC Ef wild-type (E. faecalis FA2–2) | MIC Ef fabI+ (E. faecalis FA2–2ΔfabK) | MIC Ef fabK+ (E. faecalis FA2–2ΔfabI) | MIC Fn 23726 (F. nucleatum 23726 [1]) | further results
1 | O=C(NCc1nc2ccccc2[nH]1)Nc1ncc(Sc2ccccn2)s1 [Compound 675] | 100 µg/mL (≈ 261 µM) | 100 µg/mL (≈ 261 µM) | 0.8 µg/mL (≈ 2.09 µM) | 100 µg/mL (≈ 261 µM) | 
2 | O=C(NCc1nc(-c2ccc(Br)cc2)c[nH]1)Nc1ncc(Sc2ncccc2C(F)(F)F)s1 [Compound 683] | 100 µg/mL (≈ 180 µM) | 100 µg/mL (≈ 180 µM) | <0.1 µg/mL | 3.1 µg/mL (≈ 5.58 µM) | 
3 | O=C(NCc1nc(-c2ccc(Br)cc2)c[nH]1)Nc1nc2ccc(F)cc2s1 [Compound 670] | 100 µg/mL (≈ 224 µM) | 100 µg/mL (≈ 224 µM) | <0.1 µg/mL | 100 µg/mL (≈ 224 µM) | 
4 | O=C(NCc1nc(-c2ccc(Br)cc2)c[nH]1)Nc1nc2cc(Cl)ccc2s1 [Compound 689] | 25 µg/mL (≈ 54 µM) | 25 µg/mL (≈ 54 µM) | <0.1 µg/mL | 6.3 µg/mL (≈ 13.6 µM) | 
5 | O=C(NCc1nc(-c2ccc(Br)cc2)c[nH]1)Nc1nc2ccc(Br)cc2s1 [Compound 671] | 50 µg/mL (≈ 98.6 µM) | 50 µg/mL (≈ 98.6 µM) | <0.1 µg/mL | 25 µg/mL (≈ 49.3 µM) | 
6 | O=C(NCc1nc(-c2ccc(Br)cc2)c[nH]1)Nc1ncc(Sc2nc3ccccc3s2)s1 [Compound 703] | 100 µg/mL (≈ 184 µM) | 100 µg/mL (≈ 184 µM) | <0.1 µg/mL | 100 µg/mL (≈ 184 µM) | 
7 | O=C(NCc1nc(-c2ccc(Br)cc2)c[nH]1)Nc1ncc(Sc2ccc(Cl)cn2)s1 [Compound 682] | 100 µg/mL (≈ 192 µM) | 100 µg/mL (≈ 192 µM) | <0.1 µg/mL | 3.1 µg/mL (≈ 5.94 µM) | 
8 | O=C(NCc1nc(-c2ccc(Br)cc2)c[nH]1)Nc1nc2c(F)cc(F)cc2s1 [Compound 674] | 100 µg/mL (≈ 215 µM) | 100 µg/mL (≈ 215 µM) | <0.1 µg/mL | 100 µg/mL (≈ 215 µM) | 
9 | O=C(NCc1nc(-c2ccc(Br)cc2)c[nH]1)Nc1nc2ccccc2s1 [Compound 701] |  |  |  |  | MIC (E. faecalis FA2–2): 100 µg/mL (≈ 233 µM); IC50 against CdFabK, equivalent concentration (CdFabK): 0.8 µg/mL; IC50 (CdFabK; read-out: IC50 against CdFabK): 1.88 µM; MIC (E. faecalis FA2–2ΔfabI): < 0.1 µg/mL; IC50 (FnFabK; equivalent concentration, conversion of the μM value): 10.7 µM; IC50 (FnFabK; purified FnFabK, three replicates): 10.6 µM; Hill coefficient (FnFabK inhibition) (FnFabK; four-parameter logistic fit): 1.06; MIC (F. nucleatum 23726 [1]): 1.6 µg/mL (≈ 3.74 µM)
10 | O=C(NCc1nc(-c2ccc(Br)cc2)c[nH]1)Nc1ncc(Sc2ccc(Br)cc2)s1 [Compound 702] | 100 µg/mL (≈ 177 µM) | 100 µg/mL (≈ 177 µM) | <0.1 µg/mL | 100 µg/mL (≈ 177 µM) | 
11 | O=C(NCc1nc(-c2ccc(Br)cc2)c[nH]1)Nc1ncc(Sc2ncccn2)s1 [Compound 679] | 100 µg/mL (≈ 205 µM) | 100 µg/mL (≈ 205 µM) | <0.1 µg/mL | 6.3 µg/mL (≈ 12.9 µM) | 
12 | COc1cccc2c1C(=O)c1c(O)c3c(c(O)c1C2=O)C[C@@](O)(C(=O)CO)C[C@@H]3O[C@H]1C[C@H](N)[C@H](O)[C@H](C)O1 [doxorubicin, reference compound] |  |  |  |  | IC50 at 24 h [2]: 8.1 ± 1 µg/mL (≈ 14.9 µM)
13 | O=C(NCc1nc(-c2ccc(Br)cc2)c[nH]1)Nc1ncc(Sc2ccccn2)s1 [Compound 296, 1-[4-(4-bromophenyl)-1H-imidazole-2-yl]methyl-3-[5-(pyridin-2-ylthio)thiazol-2-yl]urea] |  |  |  | 100 µg/mL (≈ 205 µM) | MIC (E. faecalis FA2–2): 100 µg/mL (≈ 205 µM); MIC (E. faecalis FA2–2ΔfabI): < 0.1 µg/mL; Efficacy in treating C. difficile infection (CDI) in mice [3]: efficacious; MIC (F. nucleatum 23726 [1]): > 100 µg/mL
14 | CCOc1ccc2sc(NC(=O)NCc3nc(-c4ccc(Br)cc4)c[nH]3)nc2c1 [Compound 690] | 25 µg/mL (≈ 52.9 µM) | 25 µg/mL (≈ 52.9 µM) | <0.1 µg/mL | 25 µg/mL (≈ 52.9 µM) | 
15 | O=C(NCc1nc(-c2ccc(Br)cc2)c[nH]1)Nc1ncc(Sc2ccc3ccccc3n2)s1 [Compound 680] | 100 µg/mL (≈ 186 µM) | 100 µg/mL (≈ 186 µM) | <0.1 µg/mL | 100 µg/mL (≈ 186 µM) | 
16 | C=C/C(C)=C/[C@@]1(C)SC(=O)C(C)=C1O [thiolactomycin, reference compound] |  |  |  |  | MIC ([4]; read-out: MIC, FabK overexpression, induced): 3.9 µg/mL; MIC ([4]; read-out: MIC, FabK overexpression, uninduced): 7.8 µg/mL; MIC ([4]; read-out: MIC, FabX overexpression, induced): 3.9 µg/mL; MIC ([4]; read-out: MIC, FabX overexpression, uninduced): 7.8 µg/mL; MIC ([4]; read-out: MIC, empty vector, induced): 7.8 µg/mL; MIC ([4]; read-out: MIC, empty vector, uninduced): 7.8 µg/mL; Effect of exogenous fatty acids on growth inhibition of F. nucleatum (F. nucleatum 23726 [5]): did not rescue
17 | O=C(NCc1nc(-c2ccc(Br)cc2)c[nH]1)Nc1ncc(Sc2ccc(C(F)(F)F)cn2)s1 [Compound 684] | 100 µg/mL (≈ 180 µM) | 100 µg/mL (≈ 180 µM) | <0.1 µg/mL | 3.1 µg/mL (≈ 5.58 µM) | 
18 | O=C(NCc1nc(-c2ccccc2)n[nH]1)Nc1ncc(Sc2ccccn2)s1 [Compound 676] | 100 µg/mL (≈ 244 µM) | 100 µg/mL (≈ 244 µM) | 0.2 µg/mL (≈ 0.488 µM) | 100 µg/mL (≈ 244 µM) | 
